Key:
allergic conjunctivitis = test: Clinical efficacy: ocular symptoms and signs (effective rate); format: in vivo, human; conditions: 1-week treatment, oral
Source text: (§1) From May 10, 2021 to Aug. 23, 2021, 36 patients diagnosed with allergic conjunctivitis complicated and allergic rhinitis were collected from Eye Hospital, China Academy of Chinese Medical Sciences, and they were divided into 2 groups according to a random number table method with 20 cases in the treatment group and 16 cases in the control group.
(§2) The treatment group was orally administered with the water decoction prepared in Example 1 with one dose a day and for twice a day, and the control group was orally administered with 10 mg of cetirizine capsules once a day.
(§3) 2. Evaluation Indexes: • 1) Ocular and nasal symptoms and signs were standardly divided into 4 grades (0: none, 1: mild: 2: moderate: and 3: severe); • 2) Systemic adverse reactions and local adverse reactions in the eyes and nose were recorded.
Eye itching: (1) none; (2) mild: the patient won't notice eye itching when busy at work, but can feel itching when free, or has intermittent eye itching, but it's not severe enough to need to be scratched with hand; (3) moderate: the patient has obvious eye itching, and can still tolerate this symptom, but has the desire to scratch it with hand; and (4) severe: the patient has very obvious and continuous eye itching and stabbing pain, and cannot tolerate these symptoms, and therefore normal life is affected.
Conjunctival congestion: (1) none; (2) mild: congestion takes place in palpebral conjunctiva and fornix in a reticular form; (3) moderate: congestion takes place in palpebral conjunctiva, fornix and bulbar conjunctiva in a reticular form; and (4) severe: congestion takes place in palpebral conjunctiva in a form of red patches, blood vessels are blurred, and obvious congestion takes place in fornix and bulbar conjunctiva;
Conjunctival edema: (1) none; (2) bulbar conjunctival edema can be seen under a slit lamp examination; (3) moderate; bulbar conjunctival edema can be directly seen under natural light; and (4) severe: bulbar conjunctival edema with vesicular protuberances; […]

allergic rhinitis = test: Clinical efficacy: nasal symptoms and signs (effective rate); format: in vivo, human; conditions: 1-week treatment, oral
Source text: as §1, §2, §3
Rhinocnesmus: (1) none; (2) mild and intermittent; (3) moderate: an ant walking sensation that can be tolerated; and (4) severe: an ant walking sensation that cannot be tolerated.
Sneezing (number of consecutive sneezings): (1) none; (2) mild: 3-9; (3) moderate: 10-14; (4) severe: ≥15.
Nose running (number of nose blowings per day): (1) none; (2) mild: =4; (3) moderate: 5-9; (4) severe ≥10.
The effective rate evaluation method is based on standards established in Clinical Development Guidelines for Pharmaceutical Products for Treatment of Allergic Rhinoconjunctivitis published by the European Medicines Agency, Chinese Expert Consensus on Diagnosis and Treatment of Allergic Conjunctivitis by Chinese Journal of Ophthalmology, 2018, and Guidelines for Diagnosis and Treatment of Allergic Rhinitis (Chinese Journal of Otorhinolaryngology Head and Neck Surgery, 2016. Vol. 51), and is divided into 4 grades (0: none; 1: mild; 2: moderate; and 3: severe), and it is considered effective if two symptoms (or signs) are improved by one grade or more, or same symptom (or sign) is improved by two grades or more. ((2) to (1), (3) to (2) or (4) to (3) represents a one-grade improvement, and (3) to (1) represents a two-grade improvement).

O=C(O)COCCN1CCN(C(c2ccccc2)c2ccc(Cl)cc2)CC1 (stereo not drawn) [cetirizine]
Effective Rate (ocular efficacy) (allergic conjunctivitis): 68.75% | Effective (ocular efficacy) (allergic conjunctivitis; number of patients): 11 | Ineffective (ocular efficacy) (allergic conjunctivitis; number of patients): 5 | Effective Rate (nasal efficacy) (allergic rhinitis): 75.0% | Effective (nasal efficacy) (allergic rhinitis; number of patients): 12 | Ineffective (nasal efficacy) (allergic rhinitis; number of patients): 4

Source: US20240041970A1, “TRADITIONAL CHINESE HERBAL COMPOSITION FOR TREATING ALLERGIC CONJUNCTIVITIS AND/OR ALLERGIC RHINITIS” (EYE HOSPITAL, CHINA ACADEMY OF CHINESE MEDICAL SCIENCES, priority 2021, published 2024)
